PMC12373499 (Nature Metabolism, 2025)
Where “and” joins values, the source holds several entries; their conditions need not be identical. Equal entries are not always repeated. Where a SMILES comes first, the peptide text is derived from it. [ ]: non-standard residue; d: D form. The star is where a group is joined. X1 = CN1C(=CC=CC=CC2=[N+](CCCCCC(=O)NCCN3C(=O)CC(*)C3=O)c3ccccc3C2(C)C)C(C)(C)c2ccccc21; Aib = CC(C)(N)C(=O)O

Legend:
Nluc–GIPR (hGIPR) = target: T1, Nluc–GIPR (hGIPR) (Homo sapiens, UniProt P48546); assay: NanoBRET saturation binding assay, HEK293T cells
T1 construct: expressed in transfected cells; host or cells: HEK293T cells, transient expression
T1 sequence (P48546 22-466): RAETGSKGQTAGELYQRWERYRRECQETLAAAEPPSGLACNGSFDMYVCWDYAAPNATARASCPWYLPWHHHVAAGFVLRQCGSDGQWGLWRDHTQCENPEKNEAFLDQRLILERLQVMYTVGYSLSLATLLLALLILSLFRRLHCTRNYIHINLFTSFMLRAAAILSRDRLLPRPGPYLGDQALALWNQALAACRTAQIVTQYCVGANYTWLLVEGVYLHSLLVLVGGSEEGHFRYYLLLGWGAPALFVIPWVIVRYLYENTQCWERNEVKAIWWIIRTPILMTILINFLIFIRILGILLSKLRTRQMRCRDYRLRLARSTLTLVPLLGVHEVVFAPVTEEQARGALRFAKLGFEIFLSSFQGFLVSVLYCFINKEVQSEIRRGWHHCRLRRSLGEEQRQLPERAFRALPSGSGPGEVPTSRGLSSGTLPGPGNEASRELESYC
Description: (§1) HEK293T cells (RRID:CVCL_0063) were cultured in DMEM/F12 GlutaMAX (ThermoFisher), supplemented with 10% FBS and 1% antibiotic-antimycotic solution and cultured at 37 °C, 5% CO2. HEK293T cells were authenticated at source using STR profiling. […] Media was then removed and the cells were incubated in PBS supplemented with 0.1% BSA and 0.01% NanoGlo (Promega). […] Plates were read using a PheraSTAR microplate reader, using the NanoBRET filter module. BRET ratios (λacceptor/λdonor) were calculated, and saturation data fit using the ‘One Site – Specific Binding’ equation of GraphPad Prism 10. Competition binding was fit using the ‘One Site – Fit Ki’ equation.

Nluc–GLP1R (hGLP1R) = target: T2, Nluc–GLP1R (hGLP1R) (Homo sapiens, UniProt P43220); assay: NanoBRET saturation binding assay, HEK293T cells
T2 construct: expressed in transfected cells; host or cells: HEK293T cells, transient expression
Description: as §1

[1] = test system: Glp1r^WT/WT, Glp1r^WT/KO and Glp1r^KO/KO mice; assay: Glucose tolerance testing (IPGTT); assay type: in vivo, mouse; set-up: Area under the curve for IPGTT: unit not given beside the values; conditions: for Area under the curve for IPGTT: individual mice
Description: Glucose was measured in blood from the tail vein at 0, 15, 30, 60, 90 and 120 min post glucose challenge. Mice were socially housed in specific-pathogen-free conditions under a 12 h light–dark cycle with ad libitum access to food and water, relative humidity 55 ± 10% and temperature 21 ± 2 °C.

SC-islets = assay: Labelling of iPS cell-derived islet-like structures (SC-islets); assay type: cell-based, human; conditions: n = 12 SC-islets from two differentiations
Description: For immunostaining, labelled islets were washed three times with PBS, then incubated with 2–4% formalin for 15 min at room temperature (16–25 °C). Islets were again washed three times with PBS, then incubated in permeabilizing blocking buffer for 1 h at room temperature before incubation with primary antibody overnight at 4 °C. The following day, islets were incubated with secondary antibody for 2 h at room temperature before mounting onto microscope slides with […] HardSet with DAPI or Everbrite Hardset. Primary and secondary antibodies are listed in Supplementary Table 5.
Human iPS cells (ALSTEM, iPS11) were maintained on iPS cell-qualified Matrigel (Corning, 354277) in mTeSR+ media (StemCell Technologies, 05826). ALSTEM iPS11 cells were authenticated at source by testing for expression of OCT4 and TRA-1-60, as well as alkaline phosphatase activity. Differentiation to islet-like structures (SC-islets) was carried out in a suspension-based, magnetic CELLSPIN bioreactor system ([…]). Differentiation media was changed daily by letting spheres settle by gravity for 3–10 min. Most of the supernatant was removed by aspiration; fresh media was added and bioreactors were placed back on the stirrer system. SC-islet differentiation was based on published protocols[35],[49]
Probe labelling was analysed using corrected total cell fluorescence, which is integrated density − (area of selected cell × mean fluorescence of background readings)[52],[53]. Colocalization was determined using Manders’ coefficient, which calculates the proportion of pixels in one channel that also show intensity from both channels. Full width at half maximum was used to analyse labelling patterns at the membrane versus cytoplasm. All analyses were performed in ImageJ (NIH), with brightness and contrast linearly adjusted across the entire image for presentation purposes and applied equally between all states under examination.

C57BL/N mice = assay: Food intake study (FED3 devices); assay type: in vivo, mouse; conditions: 10 nmol kg^−1 s.c., dark phase and cumulative 24 h, n = 8 mice
Description: Male and female 12–14 week old C57BL/N mice were singly housed in a 12 h dark–light cycle (14:00–02:00 h) and habituated to FED3 feeding devices for 7 days before commencing the study. All mice were kept on a 12 h light–dark cycle at 20–24 °C and 45–65% relative humidity (typically 21 °C and 55%). On test days, mice were fasted for 3 h before onset of the dark phase by removal of the FED3 devices. […] The study was performed using a three-way crossover design. A 1-week washout period was observed between experimental days. FED3 devices were checked, serviced and food was topped up daily.

[2] = One site -- Specific binding, fit of all pooled points

T2 sequence (P43220 24-463): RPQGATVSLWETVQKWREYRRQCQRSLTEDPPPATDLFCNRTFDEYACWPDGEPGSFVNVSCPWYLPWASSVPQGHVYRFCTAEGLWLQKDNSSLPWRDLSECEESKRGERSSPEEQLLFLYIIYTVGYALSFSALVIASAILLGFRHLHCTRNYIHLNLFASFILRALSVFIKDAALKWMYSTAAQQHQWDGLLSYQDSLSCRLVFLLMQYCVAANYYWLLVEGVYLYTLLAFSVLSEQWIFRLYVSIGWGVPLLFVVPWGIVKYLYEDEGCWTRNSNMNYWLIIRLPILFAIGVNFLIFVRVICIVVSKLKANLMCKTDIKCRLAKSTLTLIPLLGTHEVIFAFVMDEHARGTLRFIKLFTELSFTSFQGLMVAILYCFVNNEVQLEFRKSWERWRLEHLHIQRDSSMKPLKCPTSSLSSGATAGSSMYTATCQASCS

SMILES: CC[C@H](C)[C@H](NC(=O)[C@H](CC(C)C)NC(=O)[C@H](Cc1c[nH]c2ccccc12)NC(=O)[C@H](CCC(N)=O)NC(=O)[C@@H](NC(=O)[C@H](Cc1ccccc1)NC(=O)[C@H](C)NC(=O)[C@H](CCCCN)NC(=O)[C@H](CCC(N)=O)NC(=O)[C@H](C)NC(=O)[C@@H](NC(=O)[C@H](CCCCN)NC(=O)[C@H](CC(=O)O)NC(=O)[C@H](CC(C)C)NC(=O)C(C)(C)NC(=O)[C@@H](NC(=O)[C@H](CO)NC(=O)[C@H](Cc1ccc(O)cc1)NC(=O)[C@H](CC(=O)O)NC(=O)[C@H](CO)NC(=O)[C@@H](NC(=O)[C@H](Cc1ccccc1)NC(=O)[C@@H](NC(=O)CNC(=O)[C@H](CCC(=O)O)NC(=O)C(C)(C)NC(=O)[C@@H](N)Cc1ccc(O)cc1)[C@@H](C)O)[C@@H](C)O)[C@@H](C)CC)[C@@H](C)CC)C(C)C)C(=O)N[C@@H](C)C(=O)NCC(=O)NCC(=O)N1CCC[C@H]1C(=O)N[C@@H](CO)C(=O)N[C@@H](CO)C(=O)NCC(=O)N[C@@H](C)C(=O)N1CCC[C@H]1C(=O)N1CCC[C@H]1C(=O)N1CCC[C@H]1C(=O)N[C@@H](CSC1CC(=O)N(CCNC(=O)CCCCC[N+]2=C(C=CC=CC=C3N(C)c4ccccc4C3(C)C)C(C)(C)c3ccccc32)C1=O)C(N)=O (stereo partly drawn) [daLUXendin660] (H-Y[Aib]EGTFTSDYSI[Aib]LDKIAQKAFVQWLIAGGPSSGAPPPC(X1)-NH2)
- Bmax best-fit (nM), hGIPR (Nluc–GIPR (hGIPR); Nluc-tagged hGIPR, NanoBRET saturation, n = 3 independent repeats): 0.0080 nM
- Bmax, best-fit value, GIPR (Nluc–GIPR (hGIPR); [2]): 0.01181
- Bmax best-fit (nM), hGLP1R (Nluc–GLP1R (hGLP1R); Nluc-tagged hGLP1R, NanoBRET saturation, n = 3 independent repeats): 0.0140 nM
- Bmax, best-fit value, GLP1R (Nluc–GLP1R (hGLP1R); [2]): 0.0163
- effect on blood glucose in glucose tolerance test ([1]; 10 nmol kg^−1, Glp1r^WT/WT and Glp1r^WT/KO mice): substantial glucose-lowering effects
- Area under the curve for IPGTT ([1]; GLP1RKO/KO (KO) mice): 1726.5 and 1785 and 1967.25 and 1908.75 and 1827 and 1220.25 and 1424.25
- Area under the curve for IPGTT ([1]; GLP1RWT/WT and GLP1RWT/KO (WT) mice): 2001 and 1668.75 and 1041.75 and 969.75 and 1068
- Area under the curve for IPGTT, mean ([1]; KO mice, group mean (n = 6 TZP, n = 7 daLUX)): 1694
- Area under the curve for IPGTT, mean ([1]; WT mice, group mean (n = 6 TZP, n = 5 daLUX)): 1350
- Area under the curve for IPGTT, Mean Diff. WT Veh vs. WT treated ([1]; WT mice, one-way ANOVA, Benjamini, Krieger and Yekutieli): 966.4
- Area under the curve for IPGTT, Mean Diff. WT treated vs. KO treated ([1]; WT vs. KO mice, one-way ANOVA, Benjamini, Krieger and Yekutieli): -344.3
- corrected total cell fluorescence, α cells (SC-islets; GCG+ cells): 2.30 × 10^5 ± 1.59 × 10^5 AU
- corrected total cell fluorescence, β cells (SC-islets; INS+ cells): 3.60 × 10^5 ± 2.58 × 10^5 AU
- corrected total cell fluorescence, δ cells (SC-islets; SST+ cells): 2.16 × 10^5 ± 1.46 × 10^5 AU
- effect on food intake (C57BL/N mice): reduced food intake
